Measured values taken from patent US10093883B2, “Glucose gemini surfactant compound and method for preparation thereof” (ZHEJIANG UNIVERSITY, priority 2014, dated 2018).

Experiment: Surface activity test: critical micelle concentration (cmc), platinum plate method
Assay type: physicochemical
Details: 20° C.
Description: The critical micelle concentration (cmc) of the target product was determined as 0.0068 mmol/L at 20° C., which was 3 times […] than that of the compound dodecyl glucose gemini surfactant (cmc=0.02 mmol/L) and is suitable for separation and extraction of detergents and biofilm proteins.

SMILES | critical micelle concentration (cmc) [mmol/L]
CCCCCCCCCCCCOCC(COCCOCC(COCCCCCCCCCCCC)O[C@@H]1OC(CO)[C@@H](O)C(O)C1O)O[C@@H]1OC(CO)[C@@H](O)C(O)C1O (some centres unmarked) [dodecyl glucose gemini surfactant] | 0.02
CCCCCCCCCCCCCCOCC(COCCOCC(COCCCCCCCCCCCCCC)O[C@@H]1OC(CO)[C@@H](O)C(O)C1O)O[C@@H]1OC(CO)[C@@H](O)C(O)C1O (some centres unmarked) [tetradecyl glucose gemini surfactant] | 0.053
